Test results taken from PMC7083851, “Extended pharmacodynamic responses observed upon PROTAC-mediated degradation of RIPK2” (Communications Biology, 2020).
Values joined by “and” are separate entries in the source; they are usually repeats but may differ in a detail not shown here. Identical values can stand only once. Like-named read-outs stand apart in the source and are kept apart here.

Tests used:
[1] = ChromLogD7.4 high-throughput chromatographic lipophilicity; assay type: physicochemical
[2] = Blood concentrations after subcutaneous dosing in rat PK/PD studies; assay type: in vivo
Method: Female CD rats (7–8 weeks old on arrival, Charles River Ltd.) were placed into groups using a randomization schedule based on body weight prior to the study start. All animals were acclimatized for a minimum of one week prior to the experiment commencing. […] PROTAC 4 was dissolved in saline with the pH adjusted to 5.0 with sodium hydroxide (1 M).

Rat intravenous PK = assay type: in vivo
Method: Rats (n = 3) received a single intravenous (IV) bolus administration (1 mg/kg, 4 mL/kg, n = 3 rats) formulated as a solution in saline with the pH adjusted to 4.0.
Aliquots of diluted whole blood (50:50) were analysed using quantitative high-performance liquid chromatography with tandem mass spectrometric detection (LC/MS/MS) following protein precipitation. […] PK parameters were generated following non-compartmental analysis (Phoenix® WinNonlin® (Certara, L.P., St. Louis, MO)) of the resulting concentration-time data.

[3] = system: L18-MDP-stimulated TNFα release; experiment: L18-MDP-stimulated TNFα release in rat whole blood; assay type: cell-based; conditions: inhibition of L18-MDP-stimulated TNFα release
Method: Before treatment with compound or vehicle, THP1 cells, human and rat PBMCs were counted using Vi-Cell cell counter (Invitrogen) and adjusted to a final cell density of […] using complete growth medium. Cells or whole blood were treated with vehicle (0.1% DMSO) or fixed concentrations of compound up to 1 μM in half log unit increments and incubated for the time period indicated in the figure.
Where the assessment of cytokines was performed, L18-MDP was added to the cell culture media (1 μg/ml) or to the rat blood samples (100 ng/ml) and samples were incubated for up to 4 h. […]
Cytokine measurement assay: Cytokine levels were measured in rat plasma or rat PBMCs cell culture supernatants using rat V-Plex TNFα, in human plasma or human PBMCs cell culture supernatants with either TNFα tissue culture or 7-plex kit. Rat serum and tissues samples from the in vivo L18-MDP acute inflammation model were analyzed using the rat TNFα, Il-6 and IL-8 U-Plex kits. […] Levels of cytokines spontaneously released from human colon biopsies cell culture supernatants were measured using Human IL-1 beta/IL-1F2 DuoSet ELISA (Bio-techne), Human IL-6 ELISA (Immunotools) and Human TNF-alpha DuoSet ELISA (Bio-techne). […] The MSD plates were analyzed using the MSD sector imager 6000 plate reader and cytokines concentration (pg/ml) was obtained by using the MSD DISCOVERY WORKBENCH software version 4.0.12.1 […]

CN[C@@H](C)C(=O)N[C@H](C(=O)N1CCC[C@H]1c1nc(C(=O)c2ccc(F)cc2)cs1)C1CCN(C(=O)c2cnc(N3CCN(CCOc4cc5ncnc(Nc6n[nH]c(C)c6C)c5cc4S(=O)(=O)C(C)(C)C)CC3)nc2)CC1 [PROTAC 4]
ChromLogD7.4 [1]: 4.2
blood concentration, individual rat ([2]; 5 mg/kg SC, 14-day study, 0.25 h): 79.2 ng/mL and 80.8 ng/mL and 137 ng/mL
PK, blood concentration, individual rat ([2]; 20 mg/kg SC single dose, 7-day study, 0.25 h): 142.1 ng/mL and 262.3 ng/mL and 219.2 ng/mL and 88.3 ng/mL and 114.7 ng/mL
PK, blood concentration, individual rat ([2]; 20 mg/kg SC single dose, 7-day study, 0.5 h): 113.3 ng/mL and 220.7 ng/mL and 177.2 ng/mL and 88.4 ng/mL and 248.8 ng/mL
PK, blood concentration, individual rat ([2]; 20 mg/kg SC single dose, 7-day study, 1 h): 131.0 ng/mL and 198.9 ng/mL and 114.6 ng/mL and 195.5 ng/mL
PK, blood concentration, individual rat ([2]; 20 mg/kg SC single dose, 7-day study, 2 h): 110.9 ng/mL and 278.2 ng/mL and 204.9 ng/mL and 96.5 ng/mL and 292.6 ng/mL
PK, blood concentration, individual rat ([2]; 20 mg/kg SC single dose, 7-day study, 4 h): 211.6 ng/mL and 307.5 ng/mL and 375.8 ng/mL and 186.8 ng/mL and 240.9 ng/mL
PK, blood concentration, individual rat ([2]; 20 mg/kg SC single dose, 7-day study, 8 h): 104.7 ng/mL and 227.5 ng/mL and 262.0 ng/mL and 193.4 ng/mL and 268.5 ng/mL
PK, blood concentration, individual rat ([2]; 20 mg/kg SC single dose, 7-day study, 24 h): 240.6 ng/mL and 261.7 ng/mL and 347.0 ng/mL and 497.6 ng/mL and 315.9 ng/mL and 347 ng/mL
PK, blood concentration, individual rat ([2]; 20 mg/kg SC single dose, 7-day study, 72 h): 253.7 ng/mL and 143.8 ng/mL and 111.7 ng/mL and 90.2 ng/mL and 121.5 ng/mL and 90.15 ng/mL
PK, blood concentration, individual rat ([2]; 20 mg/kg SC single dose, 7-day study, 168 h): 15.0 ng/mL and 7.4 ng/mL and 9.6 ng/mL and 9.4 ng/mL and 6.1 ng/mL and 15.02 ng/mL and 7.438 ng/mL and 9.644 ng/mL and 9.399 ng/mL and 6.103 ng/mL
blood concentration, individual rat ([2]; 20 mg/kg SC, 14-day study, 0.25 h): 103 ng/mL and 111 ng/mL and 92.3 ng/mL and 10.6 ng/mL and 39.4 ng/mL
blood concentration, individual rat ([2]; 20 mg/kg SC, 14-day study, 0.5 h): 115 ng/mL and 140 ng/mL and 82.5 ng/mL and 99.9 ng/mL
blood concentration, individual rat ([2]; 20 mg/kg SC, 14-day study, 1 h): 173 ng/mL and 63.3 ng/mL and 90.1 ng/mL and 113 ng/mL and 45.9 ng/mL
blood concentration, individual rat ([2]; 20 mg/kg SC, 14-day study, 2 h): 141 ng/mL and 113 ng/mL and 120 ng/mL and 223 ng/mL
blood concentration, individual rat ([2]; 20 mg/kg SC, 14-day study, 4 h): 226 ng/mL and 313 ng/mL and 572 ng/mL and 294 ng/mL and 206 ng/mL
blood concentration, individual rat ([2]; 20 mg/kg SC, 14-day study, 8 h): 159 ng/mL and 180 ng/mL and 329 ng/mL and 167 ng/mL and 200 ng/mL
blood concentration, individual rat ([2]; 20 mg/kg SC, 14-day study, 24 h): 698 ng/mL and 518 ng/mL and 213 ng/mL and 503 ng/mL and 150 ng/mL
blood concentration, individual rat ([2]; 20 mg/kg SC, 14-day study, 72 h): 14.1 ng/mL and 69.4 ng/mL and 30 ng/mL and 33.4 ng/mL and 57.6 ng/mL
blood concentration, individual rat ([2]; 20 mg/kg SC, 14-day study, 168 h): 3.47 ng/mL and 10.5 ng/mL and 2.32 ng/mL and 3.82 ng/mL and 4.88 ng/mL
blood concentration, individual rat ([2]; 20 mg/kg SC, 14-day study, 240 h): 1.11 ng/mL and 2.09 ng/mL and 1.34 ng/mL
concentration at 7 days ([2]; rat, blood, sc, 20 mg/kg, rat, single 20 mg/kg SC, after 7 days, read-out: compound levels in blood at later time-points): < 10 ng/mL
concentration at 1 h ([2]; rat, blood, subcutaneous, 20 mg/kg, 20 mg/kg SC single dose, 7-day study, 1 h, read-out: PK, blood concentration, individual rat): 132 ng/mL
concentration at 0.5 h ([2]; rat, blood, subcutaneous, 20 mg/kg, 20 mg/kg SC, 14-day study, 0.5 h, read-out: blood concentration, individual rat): 126 ng/mL
concentration at 2 h ([2]; rat, blood, subcutaneous, 20 mg/kg, 20 mg/kg SC, 14-day study, 2 h, read-out: blood concentration, individual rat): 124 ng/mL
concentration at 240 h ([2]; rat, blood, subcutaneous, 20 mg/kg, 20 mg/kg SC, 14-day study, 240 h, read-out: blood concentration, individual rat): 1.68 ng/mL
concentration at […] ([2]; rat, blood, subcutaneous, 20 mg/kg, 20 mg/kg SC, 14-day study, […], read-out: blood concentration, individual rat): 1.71 ng/mL
concentration at 24 h ([2]; rat, whole blood, subcutaneous, 1 mg/kg, 1 mg/kg SC, 14-day study, 24 h, read-out: blood concentration, individual rat): 7.14 ng/mL
concentration at 72 h ([2]; rat, whole blood, subcutaneous, 1 mg/kg, 1 mg/kg SC, 14-day study, 72 h, read-out: blood concentration, individual rat): 1.67 ng/mL
concentration at 24 h ([2]; rat, whole blood, subcutaneous, 5 mg/kg, 5 mg/kg SC, 14-day study, 24 h, read-out: blood concentration, individual rat): 29.2 ng/mL
concentration at 168 h ([2]; rat, whole blood, subcutaneous, 5 mg/kg, 5 mg/kg SC, 14-day study, 168 h, read-out: blood concentration, individual rat): 4.77 ng/mL
concentration at 240 h ([2]; rat, whole blood, subcutaneous, 5 mg/kg, 5 mg/kg SC, 14-day study, 240 h, read-out: blood concentration, individual rat): 1.13 ng/mL
mean intravenous clearance in rats, in words (Rat intravenous PK; in vivo, iv): less than a quarter of liver blood flow
clearance (Rat intravenous PK; male, Sprague Dawley (PROTAC 4), Han Wistar (PROTAC 6), whole blood, IV bolus (4: 2 mg/kg; 6: 1 mg/kg)): 18 mL/min/kg
half-life (Rat intravenous PK; male, Sprague Dawley (PROTAC 4), Han Wistar (PROTAC 6), whole blood, IV bolus (4: 2 mg/kg; 6: 1 mg/kg), read-out: Rat T½ (converted)): 6.9 h
Vd (Rat intravenous PK; male, Sprague Dawley (PROTAC 4), Han Wistar (PROTAC 6), whole blood, IV bolus (4: 2 mg/kg; 6: 1 mg/kg), read-out: Rat Vdss): 11 L/kg
rWB MDP pIC50 ± SEM (n) [3]: 7.7 ± 0.16 (4)
